Test results: PubChem BioAssay (NCI)
“And” between values parts separate entries of the source, which are not always exact repeats. Identical values can stand only once.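 Exposure lasted 48 hours, with cells grown in 96-well plates and compounds tested at five concentrations. The concentration for 50% growth inhibition is given as GI50. TGI: total growth inhibition.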 Non-standard residues stand in square brackets, D forms with d. Residues, ends and D or L forms follow the SMILES beside them. ξ: configuration not given here. Pen = CC(C)(S)[C@H](N)C(=O)O; ξL = CC(C)CC(N)C(=O)O

What was measured:
Assay in all cases: NCI tumour cell line growth inhibition, 48 h
KM20L2 colon = tested on: KM20L2 colon
HOP-92 NSCLC = tested on: HOP-92 NSCLC
P388/ADR leukemia = tested on: P388/ADR leukemia
P388 leukemia = tested on: P388 leukemia
NCI-H226 lung = tested on: NCI-H226 lung
DLD-1 colon = tested on: DLD-1 colon
UACC-257 melanoma = tested on: UACC-257 melanoma
HOP-18 NSCLC = tested on: HOP-18 NSCLC
SN12K1 renal = tested on: SN12K1 renal
DMS 114 small cell lung = tested on: DMS 114 small cell lung
NCI-H23 lung = tested on: NCI-H23 lung
M19-MEL melanoma = tested on: M19-MEL melanoma
XF 498 CNS = tested on: XF 498 CNS
DMS 273 small cell lung = tested on: DMS 273 small cell lung
SNB-78 CNS = tested on: SNB-78 CNS
HS 578T breast = tested on: HS 578T breast
SR leukemia = tested on: SR leukemia
DU-145 prostate = tested on: DU-145 prostate
ACHN renal = tested on: ACHN renal
PC-3 prostate = tested on: PC-3 prostate
MDA-MB-231 breast = tested on: MDA-MB-231 breast
A498 renal = tested on: A498 renal
T-47D breast = tested on: T-47D breast
786-0 renal = tested on: 786-0 renal
MDA-MB-435 = tested on: MDA-MB-435
BT-549 breast = tested on: BT-549 breast
MDA-N = tested on: MDA-N
TK-10 renal = tested on: TK-10 renal
M14 melanoma = tested on: M14 melanoma

## CSCC[C@H](NC(=O)C(CC(C)C)NC(=O)[C@H](Cc1c[nH]cn1)NC(=O)CNC(=O)[C@@H](NC(=O)[C@@H](C)NC(=O)[C@H](Cc1c[nH]c2ccccc12)NC(=O)[C@H](CCC(N)=O)NC(=O)[C@@H](N)CC(N)=O)C(C)(C)SC)C(N)=O (stereo partly drawn) (H-NQW[dA][Pen](Me)GH[ξL]M-NH2)
KM20L2 colon
  TGI: > 100000 nM
HOP-92 NSCLC
  TGI: > 100000 nM
P388/ADR leukemia
  TGI: > 100000 nM
P388 leukemia
  TGI: > 100000 nM
NCI-H226 lung
  TGI: > 100000 nM
DLD-1 colon
  TGI: > 100000 nM
UACC-257 melanoma
  TGI: > 100000 nM
HOP-18 NSCLC
  TGI: > 100000 nM
SN12K1 renal
  TGI: > 100000 nM
DMS 114 small cell lung
  TGI: > 100000 nM
NCI-H23 lung
  TGI: > 100000 nM
M19-MEL melanoma
  TGI: > 100000 nM
XF 498 CNS
  TGI: > 100000 nM
DMS 273 small cell lung
  TGI: > 100000 nM
SNB-78 CNS
  TGI: > 100000 nM

## COc1cccc2c1C(=O)c1c(O)c3c(c(O)c1C2=O)C[C@@](O)(C(=O)CO)C[C@@H]3OC1CC(N2CCOCC2)C(O)C(C)O1 (stereo partly drawn)
HS 578T breast
  TGI: 228 nM
P388/ADR leukemia
  GI50: 2.5 nM
SR leukemia
  GI50: 5.53 nM
DU-145 prostate
  TGI: 3370 nM
ACHN renal
  GI50: 8.41 nM
  TGI: 73.6 nM
NCI-H226 lung
  TGI: 8.66 nM and 28.3 nM and 4.55 nM
PC-3 prostate
  TGI: 241 nM
MDA-MB-231 breast
  TGI: 433 nM
A498 renal
  TGI: 23.2 nM and 48.6 nM and 6.51 nM
T-47D breast
  TGI: 1060 nM
786-0 renal
  GI50: < 13.1 nM
  TGI: 611 nM
MDA-MB-435
  TGI: 195 nM
BT-549 breast
  TGI: 392 nM
MDA-N
  TGI: 175 nM
TK-10 renal
  TGI: 2070 nM
M14 melanoma
  TGI: 149 nM
